This assay relates to human gastric cancer cell line NCI-N87. The experiment in a line: ATCC's MTT Cell Proliferation Assay. The class given is cell-based. The note with it: 72 hours post-treatment, concentration that inhibits cell growth by 50%. The method, then: To test the activities of sodium trans-[tetrachlorobis(1H-indazole)ruthenate(III)], ATCC's MTT Cell Proliferation Assay® was performed using human gastric cancer cell line NCI-N87 (differentiated carcinoma). Stock cultures were allowed to grow to 70-80% confluence for this study. The anti-proliferative activity of sodium trans-[tetrachlorobis(1H-indazole)ruthenate(III)], against the indicated cell line was evaluated in vitro using the ATCC's MTT Cell Proliferation Assay (Catalog No. 30-1010K). NCI-N87 was grown using RPMI1640 (Cell Gro 10-040-CV), with 1% of 1M HEPES, 1% sodium pyruvate, 1% of 45% glucose solution, 10% of heat-inactivated FBS and 1% of pen/strep/glutamine. […] The plates were left overnight at room temperature in the dark and was read on a plate reader using SoftMax® Pro (version 5.2, Molecular Devices).
The absorbance data was analyzed as follows: Absorbance values were converted to Percent of Control and plotted against test agent concentrations for IC50 calculations using SoftMax® Pro (version 5.2, Molecular Devices). […] Percent of Control values were calculated by dividing the absorbance values for each test well by the No Drug Control average (column 11 values; cells+vehicle control) and multiplying by 100. […]

The structures appear in SMILES notation.

In turn, `[Cl][Ru-]([Cl])([Cl])[Cl].[Na+].c1ccc2[nH]ncc2c1.c1ccc2[nH]ncc2c1` [sodium trans-[tetrachlorobis(1H-indazole)ruthenate(III)]] returned a 50% inhibitory concentration (IC50) of 3.73 µM.

By IC50 is commonly meant the concentration that inhibits the measured activity by half. Read a high IC50 as a need for much substance.

Source of the values: patent US20130281528A1, “METHOD OF TREATING GASTRIC CANCER” (Niiki Pharma Acquisition Corp.2, priority 2010, published 2013).
